# Reference: paper PMC4896453 (PLoS ONE, 2016)
# What was measured:
# [1] = tested on: rats; assay: Rota-rod test after intrathecal infusion; format: in vivo, rat; details: same range of doses (0.1–1 nmol), data not shown
# Procedure: For all the experiments described below, male Sprague-Dawley rats (Harlan, Varese, Italy), weighing approximately 280-300g at the beginning of the experimental procedure, were used. Animals were housed in CeSAL (Centro Stabulazione Animali da Laboratorio, University of Florence) and used at least one week after their arrival. One rat was housed per cage (size 26x41 cm); animals were fed with standard laboratory diet and tap water ad libitum, and kept at 23±1°C with a 12 h light/dark cycle, light at 7 a.m. […] All animals were monitored daily using a scoring system (based on: Appearance, Food and Water Intake, Clinical Signs, Natural Behaviour and Provoked Behaviour. Maximum score is 20 and animals reaching 10 are euthanized. In the experiments reported here no animals reached this score and none died before the end of the experiment) and at the end of the experiment were euthanized by CO2 overdose. […]
# Rota-rod apparatus (Ugo Basile, Varese, Italy) consisted of a base platform and a rotating rod with a diameter of 6 cm and a non-slippery surface. […] The integrity of motor coordination was assessed on the basis of the number of falls from the rod in 60s measured 15, 30, 45, 60, 90, 120 and 180 min after treatments.
# [2] = biological target: T1, NOP receptor (CHOhNOP) (Homo sapiens, UniProt P41146); assay: GTPγ[35S] binding, CHOhNOP membranes; format: biochemical
# T1 construct: expressed in transfected cells; host or cells: CHO (Chinese Hamster Ovary)
# [3] = biological target: T1, NOP receptor (CHOhNOP); assay: Displacement binding of [3H]-UFP-101, CHOhNOP membranes
# Procedure: (§1) In the radioligand displacement binding assays, homogenization/wash buffer consisting of 50 mM Tris-HCl pH to 7.4 with KOH, for CHOhMu, CHOhDelta and CHOhKappa or additional 5 mM MgSO4 for CHOhNOP was used. Homogenisation buffer (50 mM Tris and 0.2 mM EGTA pH 7.4 with NaOH) was used in GTPγ[^35S] assays. Membranes were centrifuged at 20374 g for 10 min at 4°C. This process was repeated at least three times. The resulting pellet was resuspended in an appropriate amount of the necessary buffer and the protein concentration was determined by Lowry assay.
# (§2) Samples were incubated for 1 hr at room temperature and reactions were terminated by vacuum filtration, onto PEI-soaked Whatman GF/B filters, using a Brandel harvester.
# [4] = biological target: T2, Kappa receptor (CHOhKappa) (Homo sapiens, UniProt P41145); assay: Displacement binding of [3H]-DPN, CHOhKappa membranes; details: SEM
# T2 construct: expressed in transfected cells; host or cells: CHO (Chinese Hamster Ovary)
# Procedure: as §1, §2
# [5] = biological target: T3, human NOP receptor (NOP-RLuc/β-arrestin 2-RGFP) (Homo sapiens, UniProt P41146); assay: BRET NOP-RLuc/β-arrestin 2-RGFP interaction, HEK-293 cells; format: cell-based
# T3 construct: expressed in transfected cells; host or cells: HEK-293 (retroviral expression; whole cells)
# [6] = biological target: T4, Mu receptor (CHOhMu) (Homo sapiens, UniProt P35372); assay: Displacement binding of [3H]-DPN, CHOhMu membranes; details: SEM
# T4 construct: expressed in transfected cells; host or cells: CHO (Chinese Hamster Ovary)
# Procedure: as §1, §2
# [7] = biological target: T5, human Mu receptor (Mu-RLuc/Gβ1-RGFP) (Homo sapiens, UniProt P35372); assay: BRET Mu-RLuc/Gβ1-RGFP interaction, SH-SY5Y membranes; format: biochemical
# T5 construct: expressed in transfected cells; host or cells: SH-SY5Y (retroviral expression; membranes used)
# [8] = biological target: T4, Mu receptor (CHOhMu); assay: GTPγ[35S] binding, CHOhMu membranes; format: biochemical
# [9] = biological target: T2, Kappa receptor (CHOhKappa); assay: GTPγ[35S] binding, CHOhKappa membranes; format: biochemical
# [10] = biological target: T6, Delta receptor (CHOhDelta) (Homo sapiens, UniProt P41143); assay: GTPγ[35S] binding, CHOhDelta membranes; format: biochemical
# T6 construct: expressed in transfected cells; host or cells: CHO (Chinese Hamster Ovary)
# [11] = biological target: T7, human NOP receptor (Homo sapiens, UniProt P41146); assay: Calcium mobilisation, CHO cells with NOP and Gαqi5; format: cell-based
# T7 construct: expressed in transfected cells; host or cells: CHO
# [12] = biological target: T6, Delta receptor (CHOhDelta); assay: Displacement binding of [3H]-DPN, CHOhDelta membranes; details: SEM
# Procedure: as §1, §2
# [13] = biological target: human NOP receptor (NOP-RLuc/Gβ1-RGFP) (Homo sapiens, UniProt P41146); assay: biochemical; format: biochemical
# [14] = biological target: T8, human Mu receptor (Homo sapiens, UniProt P35372); assay: Calcium mobilisation, CHO cells with Mu and Gαqi5; format: cell-based
# T8 construct: expressed in transfected cells; host or cells: CHO
# [15] = biological target: T9, human Mu receptor (Mu-RLuc/β-arrestin 2-RGFP) (Homo sapiens, UniProt P35372); assay: BRET Mu-RLuc/β-arrestin 2-RGFP interaction, SH-SY5Y cells; format: cell-based
# T9 construct: expressed in transfected cells; host or cells: SH-SY5Y (retroviral expression; whole cells)
# T9 sequence (P35372+P27652 fused): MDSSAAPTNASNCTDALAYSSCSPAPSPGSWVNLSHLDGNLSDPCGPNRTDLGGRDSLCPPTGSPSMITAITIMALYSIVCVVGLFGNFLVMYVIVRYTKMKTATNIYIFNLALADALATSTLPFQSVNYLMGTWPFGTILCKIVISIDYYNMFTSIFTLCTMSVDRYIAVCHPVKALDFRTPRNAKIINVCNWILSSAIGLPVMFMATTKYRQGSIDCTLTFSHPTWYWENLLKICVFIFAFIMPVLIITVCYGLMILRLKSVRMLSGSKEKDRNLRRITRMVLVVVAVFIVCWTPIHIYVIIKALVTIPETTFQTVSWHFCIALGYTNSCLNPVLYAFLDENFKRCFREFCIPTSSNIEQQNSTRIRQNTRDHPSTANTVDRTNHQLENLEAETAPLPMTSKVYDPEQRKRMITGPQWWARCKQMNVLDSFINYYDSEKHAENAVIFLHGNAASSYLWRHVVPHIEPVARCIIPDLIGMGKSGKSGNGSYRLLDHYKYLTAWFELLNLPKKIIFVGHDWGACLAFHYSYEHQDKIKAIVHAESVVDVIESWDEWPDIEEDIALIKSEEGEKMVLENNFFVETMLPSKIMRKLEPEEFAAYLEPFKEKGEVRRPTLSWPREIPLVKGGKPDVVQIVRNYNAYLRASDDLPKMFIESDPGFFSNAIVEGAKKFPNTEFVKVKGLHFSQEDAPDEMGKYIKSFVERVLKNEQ
# T9 sequence (P32121 whole entry partner): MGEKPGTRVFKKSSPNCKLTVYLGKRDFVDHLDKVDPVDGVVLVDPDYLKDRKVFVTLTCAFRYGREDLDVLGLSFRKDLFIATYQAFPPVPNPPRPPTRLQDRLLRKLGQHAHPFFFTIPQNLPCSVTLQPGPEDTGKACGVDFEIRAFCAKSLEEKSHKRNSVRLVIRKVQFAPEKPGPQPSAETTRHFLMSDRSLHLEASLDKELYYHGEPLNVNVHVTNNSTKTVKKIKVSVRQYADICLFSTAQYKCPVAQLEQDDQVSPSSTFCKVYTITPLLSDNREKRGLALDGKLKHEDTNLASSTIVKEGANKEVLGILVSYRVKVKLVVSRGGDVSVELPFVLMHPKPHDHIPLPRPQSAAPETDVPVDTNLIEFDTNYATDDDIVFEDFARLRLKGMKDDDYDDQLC
# T1 sequence (P41146 whole entry): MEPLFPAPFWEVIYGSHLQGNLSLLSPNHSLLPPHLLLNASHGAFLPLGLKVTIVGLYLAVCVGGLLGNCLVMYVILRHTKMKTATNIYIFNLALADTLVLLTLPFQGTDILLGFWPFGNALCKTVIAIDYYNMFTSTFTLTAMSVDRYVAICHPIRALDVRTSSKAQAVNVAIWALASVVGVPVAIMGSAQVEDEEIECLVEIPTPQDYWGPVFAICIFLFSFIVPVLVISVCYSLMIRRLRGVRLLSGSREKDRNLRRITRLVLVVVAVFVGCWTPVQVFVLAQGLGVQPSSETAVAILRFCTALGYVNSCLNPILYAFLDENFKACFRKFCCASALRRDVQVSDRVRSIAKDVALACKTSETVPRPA
# T2 sequence (P41145 whole entry): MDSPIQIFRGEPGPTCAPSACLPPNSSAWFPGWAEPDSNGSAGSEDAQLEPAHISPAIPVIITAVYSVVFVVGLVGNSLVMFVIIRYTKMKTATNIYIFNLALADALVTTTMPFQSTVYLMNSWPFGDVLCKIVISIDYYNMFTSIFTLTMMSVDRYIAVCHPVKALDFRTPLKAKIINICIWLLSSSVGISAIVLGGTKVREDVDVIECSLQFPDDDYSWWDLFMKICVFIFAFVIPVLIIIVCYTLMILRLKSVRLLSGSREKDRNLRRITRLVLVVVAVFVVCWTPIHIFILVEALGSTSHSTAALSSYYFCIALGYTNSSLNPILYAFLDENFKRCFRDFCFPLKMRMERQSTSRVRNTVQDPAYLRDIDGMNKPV
# T6 sequence (P41143 whole entry): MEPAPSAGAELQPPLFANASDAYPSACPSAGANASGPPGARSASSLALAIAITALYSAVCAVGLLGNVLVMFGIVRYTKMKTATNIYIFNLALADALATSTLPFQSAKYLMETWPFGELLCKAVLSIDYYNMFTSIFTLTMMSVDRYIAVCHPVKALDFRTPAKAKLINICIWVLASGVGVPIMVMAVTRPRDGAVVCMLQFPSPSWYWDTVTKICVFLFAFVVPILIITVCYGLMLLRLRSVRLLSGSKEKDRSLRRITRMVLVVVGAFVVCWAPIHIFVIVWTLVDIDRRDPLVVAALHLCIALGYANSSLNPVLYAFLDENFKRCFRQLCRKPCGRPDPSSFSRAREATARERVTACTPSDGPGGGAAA
# T8 sequence (P35372 whole entry): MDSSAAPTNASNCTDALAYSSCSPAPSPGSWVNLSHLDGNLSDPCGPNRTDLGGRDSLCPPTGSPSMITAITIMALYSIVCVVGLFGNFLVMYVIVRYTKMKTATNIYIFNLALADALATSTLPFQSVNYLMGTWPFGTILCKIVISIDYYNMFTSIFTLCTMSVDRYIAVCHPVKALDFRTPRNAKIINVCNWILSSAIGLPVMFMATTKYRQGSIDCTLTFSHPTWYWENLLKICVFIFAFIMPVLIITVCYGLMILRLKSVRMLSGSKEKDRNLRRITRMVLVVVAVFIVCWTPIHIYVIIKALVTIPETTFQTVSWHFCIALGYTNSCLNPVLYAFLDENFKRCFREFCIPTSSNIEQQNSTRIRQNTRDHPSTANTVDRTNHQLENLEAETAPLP
# T4 sequence (P35372 whole entry): as above
# T7 sequence (P41146 whole entry): as the sequence (P41146 whole entry) above
# T3 sequence (P41146+P27652 fused): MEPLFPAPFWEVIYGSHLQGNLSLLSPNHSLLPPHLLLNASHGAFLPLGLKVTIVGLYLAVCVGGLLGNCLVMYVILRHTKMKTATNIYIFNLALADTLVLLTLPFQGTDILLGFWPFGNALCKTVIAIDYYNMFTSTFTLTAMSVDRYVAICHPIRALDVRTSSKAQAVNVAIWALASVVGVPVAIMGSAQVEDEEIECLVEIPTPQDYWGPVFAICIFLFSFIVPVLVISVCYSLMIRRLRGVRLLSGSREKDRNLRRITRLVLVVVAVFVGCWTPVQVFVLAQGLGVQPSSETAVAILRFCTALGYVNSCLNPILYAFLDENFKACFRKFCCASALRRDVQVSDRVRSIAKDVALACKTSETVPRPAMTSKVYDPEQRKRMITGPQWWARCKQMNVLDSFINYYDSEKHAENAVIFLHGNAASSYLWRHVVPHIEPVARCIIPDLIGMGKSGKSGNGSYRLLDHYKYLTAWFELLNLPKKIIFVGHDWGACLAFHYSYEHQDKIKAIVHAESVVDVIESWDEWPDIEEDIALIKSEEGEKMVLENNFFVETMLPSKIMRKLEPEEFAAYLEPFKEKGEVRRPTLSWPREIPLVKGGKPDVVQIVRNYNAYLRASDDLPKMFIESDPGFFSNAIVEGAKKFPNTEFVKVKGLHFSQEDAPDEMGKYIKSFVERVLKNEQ
# T3 sequence (P32121 whole entry partner): as the sequence (P32121 whole entry partner) above
# T5 sequence (P35372 whole entry, looked up): as the sequence (P35372 whole entry) above
# Chain of human NOP receptor (NOP-RLuc/Gβ1-RGFP) (P41146 whole entry, looked up): as the sequence (P41146 whole entry) above
smiles,measurement,setting,value
CC(C)C[C@H](NC(=O)[C@H](CCCCN)NC(=O)[C@H](CCCNC(=N)N)NC(=O)[C@H](C)NC(=O)[C@H](CO)NC(=O)[C@H](CCCCN)NC(=O)[C@H](CCCNC(=N)N)NC(=O)[C@H](C)NC(=O)CNC(=O)[C@@H](NC(=O)[C@H](Cc1ccccc1)NC(=O)CNC(=O)CNC(=O)[C@@H](N)Cc1ccccc1)[C@@H](C)O)C(=O)N[C@@H](C)C(=O)N[C@@H](CC(N)=O)C(=O)N[C@@H](CCC(N)=O)C(=O)N[C@@H](CSC1CC(=O)N(CCCC(=O)NCCCC[C@H](NC(=O)[C@H](CO)NC(=O)[C@@H]2CCCN2C(=O)[C@H](Cc2ccc(O)cc2)NC(=O)CNC(=O)[C@H](Cc2ccccc2)NC(=O)[C@@H](C)NC(=O)[C@@H](N)Cc2ccc(O)cc2)C(N)=O)C1=O)C(N)=O (stereo partly drawn) [DeNo],animal performance in the rotarod test,[1],impaired animal performance in the rotarod test
same,EC50,[2],0.316 nM
same,Ki,[3]; SEM,0.0603 nM
same,NOP selectivity over Mu in binding,[3]; from pKi values,~ 5 fold
same,Ki,[4],45.7 nM
same,EC50,[5],6.46 nM
same,Ki,[6],0.282 nM
same,EC50,[7],9.77 nM
same,EC50,[8],17 nM
same,EC50,[9],1200 nM
same,EC50,[10],166 nM
same,EC50,[11],0.204 nM
same,Emax,"[11]; calcium mobilisation, % over basal fluorescence, CHO cells with human NOP and Gαqi5, at least 3 experiments in duplicate, SEM",244 ± 6%
same,Ki,[12],7.59 nM
same,EC50,[13],0.955 nM
same,EC50,[14],67.6 nM
same,Emax,"[14]; calcium mobilisation, % over basal fluorescence, CHO cells with human Mu and Gαqi5, at least 3 experiments in duplicate, SEM",209 ± 15%
same,EC50,[15],437 nM
